Where a name gives a salt, the structure may show the parent alone.
Test: Water solubility of an additive
Type: physicochemical
Conditions: 25° C., demineralized water
Description: The water solubility of an additive was determined at ambient conditions (25° C.) in demineralized water. Measured quantities of additive and demineralized water were combined and shaken for up to two hours. The additive was deemed soluble if a clear solution resulted; the additive was otherwise deemed insoluble. The water solubility of an additive is the maximum concentration of additive producing a clear solution in water.

Compound	Solubility H2O
CCCCOC(=O)CC(CC(=O)OCCCC)(OC(C)=O)C(=O)OCCCC [ATBC, Acetyl tributyl citrate]	<0.1 w %
CCCCOC(=O)CC(O)C(=O)OCCCC (stereo not drawn) [DBM, Dibutyl malate]	0.2 w %
CCCCOC(=O)C(O)C(O)C(=O)OCCCC (stereo not drawn) [DBT, Dibutyl tartarate]	0.8 w %
CCOC(=O)CC(O)C(=O)OCC (stereo not drawn) [DEM, Diethyl malate]	>10 w %
CC(C)OC(=O)C(O)C(O)C(=O)OC(C)C (stereo not drawn) [DIPT, Diisopropyl tartarate]	>10 w %
C=C(C)C(=O)OCC(CO)OC(=O)C(=C)C (stereo not drawn) [GDM, Glycerol dimethacrylate]	0.4 w %
CCCCOC(=O)CC(O)(CC(=O)OCCCC)C(=O)OCCCC [TBC, Tributyl citrate]	<0.05 w %
COC(=O)CC(O)(CC(=O)OC)C(=O)OC [TMC, Trimethyl citrate]	6 w %
C4H9(OC3H6)3—OH [DTPnB]	3 w %

Source: patent US7723417B2, “Fluorochemical composition and method for treating a substrate therewith” (3M Innovative Properties Company, priority 2004, dated 2010)
